# Assays:
# Assay type in all cases: cell-based
# E. coli = assay: Time-dependent change in live and dead bacteria ATP luminescence amount (Methods (1) to (4))
# Source text: Next, a method for measuring ATP derived from the live bacteria and the dead bacteria will be described with reference to FIG. 2. A live bacteria ATP method in Method (1) is used in eliminating ATP5 outside a bacterial cell so as to measure ATP2000 included in the cell membrane of the live bacterium 2 and ATP3000 included in the cell membrane of the dead bacterium 3 having no damage to the cell membrane. A submerged ATP method in Method (2) is used in measuring the dead bacteria 4 having the damaged cell membrane and the free ATP5 in the culture liquid 1 while the bacterial cells of the live bacterium 2 and the dead bacteria 3 and 4 are included. The dead bacterium 4 serves as a measurement target, since a substrate and enzyme of enzyme luciferase reaction which are bioluminescent molecules (to be described later) enter the dead bacterium 4 from a damaged site. […]
# Next, a result example obtained in such a way that E. coli as an example is processed according to Methods (1) to (4) so as to measure an ATP amount will be described with reference to FIGS. 4a and 4b. […] The luciferase oxidizes luciferin which serves as a substrate in the presence of ATP and Mg^2+ inside the bacteria, and a luminescence amount generated at that time is proportional to the ATP amount. Accordingly, bacteria growth is evaluated, based on a change in the luminescence amount.
# In the present embodiment, the luminescence amount is represented by integration of a photon count value of 60 sec, and the unit is defined as the luminescence amount (amount of luminescence (a.u.)). As described above, the luminescence amount and the ATP amount are in a proportional relationship. In a case where the luminescence amount increases, it is determined that the ATP amount increases.
# FIG. 4a illustrates a result obtained by culturing E. coli on the absence of antibiotics. […] If the results in FIGS. 4a and 4b are compared with each other, in FIG. 4a, according to the live bacteria ATP method in Method (1), the luminescence amount increases with the lapse of the culture time until four hours of the culture time. […]
# [1] = test system: Staphylococcus aureus (ATCC25923); assay: Antimicrobial susceptibility test using the ATP method (dead bacteria ATP / live bacteria ATP ratio); conditions: S. aureus, ABPC 0.25 μg/mL, LVFX 0.125 μg/mL, FIG. 12
# Description: (§1) In this experiment, Escherichia coli (ATCC25922 strain; hereinafter, referred to as E. coli) and Staphylococcus aureus (ATCC25923; hereinafter, referred to as S. aureus) are used as the bacterial cell. An antimicrobial susceptibility test using the ATP method is carried out for both of these. As antibiotics, ampicillin and levofloxacin (hereinafter, referred to as LVFX) are used. First, the bacterial cells are cultured overnight on an LB agar medium, and the next day, a colony is suspended in a Mueller-Hinton (hereinafter, referred to as MH) medium, thereby preparing a bacterial suspension prepared in 0.5 McFarland. Next, the bacterial suspension diluted 500 times in the MH medium is distributed as much as each 50 μL to the plate to which the MH medium containing the antibiotic whose concentration is twice the final concentration is distributed in advance as much as each 50 μL. The static culture is carried out at 37° C. for a certain period of time, and the bacterial suspension is prepared. For the final concentration of the antibiotic, ABPC is set to 4 μg/mL and LVFX is set to 0.125 μg/mL in a case where E. coli is a measurement target. In a case where S. aureus is a measurement target, ABPC is set to 0.25 μg/mL and LVFX is set to 0.125 μg/mL. The bacterial cells are compared with the bacterial cells cultured in the MH medium having no antibiotic contained therein. The live bacteria ATP is prepared by mixing 2 μL of the ATP eliminating solution with 18 μL of the above-described bacteria culture liquid, and the mixture is left static at room temperature for 30 minutes. Thereafter, 20 μL of the ATP extracting reagent is mixed therewith, and the mixture is left static at room temperature for one minute so as to prepare the live bacteria ATP. The dead bacteria ATP is prepared by adding the bacteria culture liquid onto a filter (membrane pore size 0.22 μm). The filtrate obtained through filtering using centrifugation is used as the dead bacteria ATP. The luminescence reagent is added to the prepared live bacteria ATP or dead bacteria ATP, and is subjected to photon counting for one minute. The obtained luminescence amount (amount of luminescence (a.u.)) is used as an index of the ATP amount. According to the above-described experiment, a luminescence amount ratio between the dead ATP luminescence amount and the live ATP luminescence amount is obtained. FIGS. 11 and 12 illustrate a result obtained by calculating the luminescence amount ratio as an amount ratio between the live bacteria ATP and the dead bacteria ATP.
# [2] = test system: Escherichia coli (ATCC25922 strain); assay: as above; conditions: E. coli, ABPC 4 μg/mL, LVFX 0.125 μg/mL, FIG. 11
# Description: as §1
structure (smiles),measurement,setting,value
"CC1(C)S[C@@H]2[C@H](NC(=O)[C@H](N)c3ccccc3)C(=O)N2[C@H]1C(=O)O [ABPC, ampicillin]",luminescence amount according to submerged ATP method (2) to total ATP method (4),"E. coli; E. coli cultured in the presence of 8 μg/mL ampicillin, FIG. 4b",increases or does not vary greatly
same,luminescence amount of the live bacteria ATP according to Method (1),"E. coli; E. coli cultured in the presence of 8 μg/mL ampicillin, after three hours of culture, FIG. 4b",decreases with the lapse of the culture time
same,action of the antibiotic on growth of live bacteria,"E. coli; E. coli, 8 μg/mL ampicillin, during four hours of the culture time",stops the growth of the live bacteria so as to kill the bacteria with the lapse of time
same,time after start of antimicrobial susceptibility culture at which the effect can be determined (ratio dead bacteria ATP/live bacteria ATP = 1),[1],approximately two and a half
same,ratio of the dead bacteria ATP amount/the live bacteria ATP amount as the culture time elapses,"[1]; MH medium, 37° C.",increases
same,time after start of antimicrobial susceptibility culture at which the effect can be determined (ratio dead bacteria ATP/live bacteria ATP = 1),[2],approximately three
same,ratio of the dead bacteria ATP amount/the live bacteria ATP amount as the culture time elapses,"[2]; MH medium, 37° C.",increases

# Source: patent US10619182B2, “Method, device and system for testing drug sensitivity” (HITACHI, LTD., priority 2014, dated 2020)
